In patent US20230202990A1, “CYCLOHEXYL SUBSTITUTED TRIAZOLES” (Hoffmann-La Roche Inc., priority 2020, published 2023):

What follows are compounds tested against T1, human V1a receptor (Homo sapiens, UniProt P37288) (assay: human V1a receptor binding studies (3H-Vasopressin SPA, HEK293 cell membranes)). Settings: competition with 3H-Vasopressin on membranes of HEK293 cells transiently transfected with human V1a receptor; Ki by Cheng-Prussoff equation; read-out: pKi (hV1a) (converted).
T1 construct: expressed in transfected cells; host or cells: HEK293 cells, transiently transfected; cell membranes
T1 sequence (P37288 whole entry): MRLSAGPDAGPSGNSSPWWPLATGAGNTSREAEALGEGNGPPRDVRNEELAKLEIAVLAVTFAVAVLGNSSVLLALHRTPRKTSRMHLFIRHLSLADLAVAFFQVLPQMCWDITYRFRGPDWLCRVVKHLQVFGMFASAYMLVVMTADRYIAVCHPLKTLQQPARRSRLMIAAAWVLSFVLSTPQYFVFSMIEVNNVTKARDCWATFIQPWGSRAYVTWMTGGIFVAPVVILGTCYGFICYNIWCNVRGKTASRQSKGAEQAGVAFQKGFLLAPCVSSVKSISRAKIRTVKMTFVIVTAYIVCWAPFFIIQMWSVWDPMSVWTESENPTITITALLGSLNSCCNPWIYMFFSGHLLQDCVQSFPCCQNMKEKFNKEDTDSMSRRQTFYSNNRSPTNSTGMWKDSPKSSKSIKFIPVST
Protocol: The human V1a receptor was cloned by RT-PCR from total human liver RNA. The coding sequence was subcloned in an expression vector after sequencing to confirm the identity of the amplified sequence. […] Cell membranes were prepared from HEK293 cells transiently transfected with the expression vector and grown in 20 liter fermenters with the following protocol.
50 g of cells are re-suspended in 30 ml freshly prepared ice cold Lysis buffer (50 mM HEPES, 1 mM EDTA, 10 mM MgCl2 adjusted to pH= 7.4 + complete cocktail of protease inhibitor (Roche Diagnostics)). Homogenized with Polytron for Imin and sonicated on ice for 2x 2 minutes at 80% intensity (Vibracell sonicator). The preparation is centrifuged 20 min at 500 g at 4° C., the pellet is discarded and the supernatant centrifuged 1 hour at 43 ′000g at 4° C. (19 ′000rpm). The pellet is re-suspended in 12.5 ml Lysis buffer+12.5 ml Sucrose 20% and homogenized using a Polytron for 1-2 min. The protein concentration is determined by the Bradford method and aliquots are stored at -80° C. until use. For binding studies 60 mg Yttrium silicate SPA beads (Amersham) are mixed with an aliquot of membrane in binding buffer (50 mM Tris, 120 mM NaCl, 5 mM KCl, 2 mM CaCl2, 10 mM MgCl2) for 15 minutes with mixing. 50 µl of bead/membrane mixture is then added to each well of a 96 well plate, followed by 50 µl of 4 nM 3H-Vasopressin (American Radiolabeled Chemicals). For total binding measurement 100 µl of binding buffer are added to the respective wells, for non-specific binding 100 µl of 8.4 mM cold vasopressin and for compound testing 100 µl of a serial dilution of each compound in 2% DMSO. The plate is incubated 1 h at room temperature, centrifuged 1 min at 1000 g and counted on a Packard Top-Count. Non-specific binding counts are subtracted from each well and data is normalized to the maximum specific binding set at 100%. To calculate an IC50 the curve is fitted using a non-linear regression model (XLfit) and the Ki is calculated using the Cheng-Prussoff equation.

Row | Ki | Compound
1 | 31.6 nM | C[S@@+]([O-])Cc1nnc(C2CCC(Oc3ccccn3)CC2)n1-c1ccc(Cl)cc1 (single isomer, unassigned) [Example 39, trans-(+)-2-((4-(4-(4-Chlorophenyl)-5-((methylsulfinyl)methyl)-4H-1,2,4-triazol-3-yl)cyclohexyl)oxy)pyridine]
2 | 2.24 nM | Clc1ccc(-n2cnnc2[C@H]2CC[C@H](Oc3ccccn3)CC2)cc1 [Example 52, trans((4-(4-(4-Chlorophenyl)-4H-1,2,4-triazol-3-yl)cyclohexyl)oxy)pyridine]
3 | 18.6 nM | Cc1nnc([C@H]2CC[C@H](Oc3ccccn3)CC2)n1-c1ccc(C(F)F)cc1 [Example 7, trans((4-(4-(4-(Difluoromethyl)phenyl)-5-methyl-4H-1,2,4-triazol-3-yl)cyclohexyl)oxy)pyridine]
4 | 3.39 nM | Cc1ccc(-n2c(C)nnc2[C@H]2CC[C@H](Oc3ccc(C)nc3)CC2)cc1 [Example 65, transMethyl-5-[4-[5-methyl-4-(4-methylphenyl)-1,2,4-triazol-3-yl]cyclohexyl]oxypyridine]
